According to PubChem BioAssay (NCI):
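Dose response: 5 concentrations. Exposure: 48 h. Format: 96-well plates. Endpoint: linear interpolation; highest concentration if not reached. Abbreviation: GI50, concentration required for 50% inhibition of growth. TGI: concentration producing complete growth inhibition.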

Assays:
Assay in all cases: NCI tumour cell line growth inhibition, 48 h
UACC-257 melanoma = test system: UACC-257 melanoma
NCI/ADR-RES ovarian = test system: NCI/ADR-RES ovarian
MDA-MB-231 breast = test system: MDA-MB-231 breast
TK-10 renal = test system: TK-10 renal
CAKI-1 renal = test system: CAKI-1 renal
MALME-3M melanoma = test system: MALME-3M melanoma
KM12 colon = test system: KM12 colon
MOLT-4 leukemia = test system: MOLT-4 leukemia
UACC-62 melanoma = test system: UACC-62 melanoma
SK-MEL-2 melanoma = test system: SK-MEL-2 melanoma

Compound | TGI (UACC-257 melanoma) | TGI (NCI/ADR-RES ovarian) | TGI (MDA-MB-231 breast) | TGI (TK-10 renal) | TGI (CAKI-1 renal) | TGI (MALME-3M melanoma) | TGI (KM12 colon) | GI50 (MOLT-4 leukemia) | TGI (MOLT-4 leukemia) | GI50 (UACC-62 melanoma) | TGI (UACC-62 melanoma) | GI50 (UACC-257 melanoma) | GI50 (NCI/ADR-RES ovarian) | GI50 (MDA-MB-231 breast) | GI50 (TK-10 renal) | GI50 (CAKI-1 renal) | GI50 (MALME-3M melanoma) | GI50 (SK-MEL-2 melanoma) | TGI (SK-MEL-2 melanoma) | GI50 (KM12 colon)
Cn1cc(C2NC(=O)c3ccccc3N2)c2ccccc21 (centres undefined) | > 100 µM | 2.49 µM | > 100 µM | > 100 µM | > 100 µM | > 29.7 µM | 26.9 µM |  |  |  |  |  |  |  |  |  |  |  |  | 
O=C1NC(=O)C(c2c[nH]c3ccccc23)=C1c1c[nH]c2ccccc12 | > 25 µM | > 25 µM | > 25 µM | > 25 µM | > 25 µM | > 25 µM | > 25 µM | 9.55 µM | > 25 µM | 12.1 µM | > 25 µM | 15.6 µM | 12.8 µM | 12.6 µM | 19.2 µM | 7.37 µM | > 14.7 µM | 12 µM | > 25 µM | 9.3 µM
CCN1CCN(CCC(=O)Nc2cccc(-n3cc(-c4ccncc4)c(-c4ccc(Cl)c(OC)c4)n3)c2)CC1 | 2.31 µM | 4.29 µM | 2.92 µM | 5 µM |  | 2.35 µM | 1.68 µM | 0.661 µM | 5.76 µM | 0.757 µM | 2.34 µM | 0.864 µM | 1.27 µM | 1.21 µM | 1.75 µM |  | 0.765 µM | 1.11 µM | 2.55 µM | 0.394 µM
CCOc1ccc(N(C)c2ccc(/C=C/C3=[N+](C)c4ccccc4C3(C)C)cc2)cc1 | 0.861 µM | 16.6 µM | 2.22 µM |  | 2.48 µM | 0.848 µM | 1.05 µM | 0.193 µM | 0.709 µM | 0.444 µM | 2.16 µM | 0.188 µM | 2.43 µM | 0.485 µM |  | 0.784 µM | 0.184 µM | 0.361 µM | 1.25 µM | 0.219 µM
CC1CCCCCC(=O)c2c(O)cc(O)cc2CC(=O)O1 (centres undefined) | > 100 µM | > 100 µM | > 100 µM | > 100 µM | > 100 µM | > 100 µM | > 100 µM |  | > 100 µM |  | > 100 µM |  |  |  |  |  |  |  | > 100 µM | 
C=C(CO)C(=O)OC1CC(=C)C2CC(O)C(C)C2C2OC(=O)C(=C)C12 (centres undefined) | 32.7 µM | > 100 µM | 36.2 µM | 33.2 µM | 36.6 µM | 41.7 µM | 33.6 µM |  | 64.6 µM |  | 35.3 µM |  |  |  |  |  |  |  | 32 µM | 
CCC(=C(c1ccc(OCCN2CCCCC2)cc1)c1ccc(OCCN2CCCCC2)cc1)c1ccc(Cl)cc1 | 8.08 µM | > 16.7 µM | > 16.7 µM | > 16.7 µM | > 16.7 µM | 5.21 µM | > 16.7 µM | 2.77 µM | > 16.7 µM | 3.09 µM | 6.2 µM | 3.47 µM | > 16.7 µM | 5.35 µM | > 16.7 µM | 5.74 µM | 2.72 µM | 9.5 µM | > 16.7 µM | > 16.7 µM
CC(=O)/C(=C\c1ccc(Cl)cc1)c1ccccc1 |  | > 100 µM | > 100 µM | > 66.6 µM | > 100 µM | > 100 µM | > 100 µM | 0.124 µM | > 100 µM | 0.0473 µM | > 93.8 µM |  | 2.07 µM | 0.212 µM | 2.76 µM | 0.549 µM | 43.2 µM | 0.141 µM | > 100 µM | 0.054 µM
C=CCc1cccc(C=O)c1O | > 100 µM | > 100 µM | > 100 µM | > 100 µM | > 100 µM | > 100 µM |  | 15.5 µM | 55.1 µM | 35.9 µM | > 100 µM | > 100 µM | 20.4 µM | 19.1 µM | > 100 µM | > 100 µM | > 100 µM | > 100 µM | > 100 µM | 
O=C1C=C(Nc2ccccc2)c2ccccc2C1=O | 3.25 µM | 8.82 µM | 7.61 µM | 7.75 µM | 13.7 µM | 3.07 µM | 9.17 µM | 2.87 µM | 9.47 µM | 1.65 µM | 3.12 µM | 1.79 µM | 2.48 µM | 1.88 µM | 2.86 µM | 3.11 µM | 1.64 µM |  |  | 2.94 µM
C=CCC1(O)c2ccccc2C(=O)c2c(OCC(=O)OCC)ccc(OCC(=O)OCC)c21 (centres undefined) | > 100 µM | > 100 µM | > 100 µM | > 100 µM | > 100 µM |  | > 100 µM | 51 µM | > 100 µM | 64.7 µM | > 100 µM | > 100 µM | > 100 µM | 25.6 µM | > 100 µM | > 100 µM |  | > 100 µM | > 100 µM | > 100 µM
CC(C)(C)CC(C)(C)c1ccc(OCCO)cc1 | 16.9 µg/mL | 18.1 µg/mL | 15.7 µg/mL | 33 µg/mL | 8.37 µg/mL |  | 18.6 µg/mL | 3.41 µg/mL | > 75 µg/mL | 3.51 µg/mL | 15.9 µg/mL | 2.39 µg/mL | 2.61 µg/mL | 4.43 µg/mL | 10.6 µg/mL | 0.678 µg/mL |  | 8.07 µg/mL | 18.7 µg/mL | 7.81 µg/mL
C[C@@H]1CN2[C@H]3[C@@H]1CC[C@]31CCC(=O)O[C@]1(C)[C@H]1CC[C@H]3CCC=C3[C@@H]12 |  | > 30 µM | > 30 µM | > 30 µM | > 30 µM | > 30 µM | > 30 µM | > 30 µM | > 30 µM | > 30 µM | > 30 µM |  | > 30 µM | > 30 µM | > 30 µM | > 30 µM | > 30 µM | > 30 µM | > 30 µM | > 30 µM
CC1=C(CCCOC(=O)[C@H](N)CC(C)C)C2=C(C)C3(CC3)[C@@](C)(O)C(=O)C2=C1 | 6.06 µM | > 38.8 µM | 6.42 µM | 7.92 µM |  | 3.31 µM | > 100 µM | 24.6 µM | > 100 µM | 1.75 µM | 3.75 µM | 2.53 µM | 2.14 µM | 2.03 µM | 2.88 µM |  | 1.44 µM | 1.91 µM | 3.89 µM | 7.66 µM
